Assay results as given in the NIST ThermoML archive (doi:10.1021/je500065k).
± gives the expanded uncertainty stated by the source.

Conditions: 101.33 kPa, Liquid; for electrical conductivity: the complex impedance method; for mass density: Vibrating tube method

CC[N+](C)(CC)CCOC.O=S(=O)([N-]S(=O)(=O)C(F)(F)F)C(F)(F)F
Conditions | electrical conductivity [S/m] | mass density [kg/m3] | viscosity [mPa·s]
234.15 K | 0.00083 ± 1e-05 | – | –
243.15 K | 0.0033 ± 0.0001 | – | –
253.15 K | 0.0113 ± 0.0001 | – | –
263.15 K | 0.0301 ± 0.0003 | – | –
273.15 K | 0.0662 ± 0.0007 | – | –
283.15 K | 0.127 ± 0.001 | 1420.6 ± 1.9 | 166 ± 11
288.15 K | – | 1416.1 ± 1.9 | 123 ± 6
293.15 K | 0.216 ± 0.002 | 1411.5 ± 1.9 | 92.7 ± 3.3
298.15 K | – | 1406.9 ± 1.9 | 71.8 ± 1.6
303.15 K | 0.336 ± 0.003 | 1402.3 ± 1.9 | 56.8 ± 0.8
308.15 K | – | 1397.7 ± 1.9 | 45.7 ± 0.8
313.15 K | 0.488 ± 0.005 | 1393.2 ± 1.9 | 37.4 ± 0.6
318.15 K | – | 1388.6 ± 1.9 | 31 ± 0.5
323.15 K | 0.67 ± 0.007 | 1384 ± 1.9 | 26.1 ± 0.4
328.15 K | – | 1379.5 ± 1.9 | 22.2 ± 0.4
333.15 K | 0.869 ± 0.009 | 1375 ± 1.9 | 19.1 ± 0.3
338.15 K | – | 1370.5 ± 1.8 | 16.6 ± 0.3
343.15 K | 1.09 ± 0.01 | 1366.1 ± 1.8 | 14.5 ± 0.3
348.15 K | – | 1361.7 ± 1.8 | 12.8 ± 0.2
353.15 K | 1.33 ± 0.01 | 1357.3 ± 1.8 | 11.4 ± 0.2

CC[N+](C)(CC)CCOC.F[B-](F)(F)F
Conditions | electrical conductivity [S/m] | mass density [kg/m3] | viscosity [mPa·s]
263.15 K | 0.0055 ± 0.0001 | – | –
273.15 K | 0.0156 ± 0.0002 | – | –
283.15 K | 0.0381 ± 0.0004 | 1188.2 ± 1.5 | 1350 ± 240
288.15 K | – | 1184.8 ± 1.5 | 890 ± 140
293.15 K | 0.0821 ± 0.0008 | 1181.3 ± 1.5 | 604 ± 81
298.15 K | – | 1177.8 ± 1.5 | 422 ± 49
303.15 K | 0.153 ± 0.002 | 1174.4 ± 1.5 | 303 ± 30
308.15 K | – | 1171 ± 1.5 | 222 ± 18
313.15 K | 0.262 ± 0.003 | 1167.7 ± 1.5 | 167 ± 11
318.15 K | – | 1164.4 ± 1.5 | 128 ± 7
323.15 K | 0.414 ± 0.004 | 1161.1 ± 1.5 | 99.7 ± 3.9
328.15 K | – | 1157.9 ± 1.5 | 79.1 ± 2.1
333.15 K | 0.612 ± 0.006 | 1154.7 ± 1.5 | 63.7 ± 1.1
338.15 K | – | 1151.4 ± 1.5 | 52 ± 0.6
343.15 K | 0.857 ± 0.009 | 1148.2 ± 1.5 | 43 ± 0.7
348.15 K | – | 1145 ± 1.4 | 36 ± 0.6
353.15 K | 1.16 ± 0.01 | 1141.8 ± 1.4 | 30.5 ± 0.5
